Assay results from US11331369B2, “Endoparasitic depsipeptides” (Zoetis Services LLC, priority 2017, dated 2022).

What was measured:
[1] = tested on: microfilariae of Dirofilaria immitis; assay: Dirofilaria immitis, Microfilaria (DiMF) In vitro Assay; format: cell-based; conditions: 72 h, read-out: DiMF Minimum Effective Dose (MED), approximately 72 hours incubation, microfilariae assessed for survival or paralysis
[2] = tested on: third stage larvae of Haemonchus contortus; assay: Haemonchus contortus L3 (HcL3) Assay; format: cell-based; conditions: 96 h, read-out: HcL3 Minimum Effective Dose (MED)

| SMILES | minimal effective concentration [1] [µM] | minimal effective concentration [2] [µM] |
| --- | --- | --- |
| CC(C)C[C@H]1C(=O)O[C@H](Cc2ccc(Cn3nc(C4CC4)cc3C3CC3)cc2)C(=O)N(C)[C@@H](CC(C)C)C(=O)O[C@H](C)C(=O)N(C)[C@@H](CC(C)C)C(=O)O[C@H](Cc2ccc(Cn3nc(CO)cc3C3CC3)cc2)C(=O)N(C)[C@@H](CC(C)C)C(=O)O[C@H](C)C(=O)N1C [Example 1a-14, (3S,6R,9S,12R,15S,18R,21S,24R)-6-(4-((5-cyclopropyl-3-(hydroxymethyl)-1H-pyrazol-1-yl)methyl)benzyl)-18-(4-((3,5-dicyclopropyl-1H-pyrazol-1-yl)methyl)benzyl)-3,9,15,21-tetraisobutyl-4,10,12,16,22,24-hexamethyl-1,7,13,19-tetraoxa-4,10,16,22-tetraazacyclotetracosan-2,5,8,11,14,17,20,23-octaone] | 0.01 to 0.1 | 1 to 10 |
| CC(C)C[C@H]1C(=O)O[C@H](Cc2ccc(Cn3cc(C(C)(C)C)cn3)cc2)C(=O)N(C)[C@@H](CC(C)C)C(=O)O[C@H](C)C(=O)N(C)[C@@H](CC(C)C)C(=O)O[C@H](Cc2ccc(Cn3cccn3)cc2)C(=O)N(C)[C@@H](CC(C)C)C(=O)O[C@H](C)C(=O)N1C [Example 1a-17, (3S,6R,9S,12R,15S,18R,21S,24R)-6-(4-((1H-pyrazol-1-yl)methyl)benzyl)-18-(4-((4-(tert-butyl)-1H-pyrazol-1-yl)methyl)benzyl)-3,9,15,21-tetraisobutyl-4,10,12,16,22,24-hexamethyl-1,7,13,19-tetraoxa-4,10,16,22-tetraazacyclotetracosan-2,5,8,11,14,17,20,23-octaone] | 0.001 to 0.01 | 1 to 10 |
| CC(C)C[C@H]1C(=O)O[C@H](Cc2ccc(Cn3nccc3OC(C)C)cc2)C(=O)N(C)[C@@H](CC(C)C)C(=O)O[C@H](C)C(=O)N(C)[C@@H](CC(C)C)C(=O)O[C@H](Cc2ccc(Cn3ccc(OC(C)C)n3)cc2)C(=O)N(C)[C@@H](CC(C)C)C(=O)O[C@H](C)C(=O)N1C [Example 1a-35, (3S,6R,9S,12R,15S,18R,21S,24R)-3,9,15,21-tetraisobutyl-6-(4-((3-isopropoxy-1H-pyrazol-1-yl)methyl)benzyl)-18-(4-((5-isopropoxy-1H-pyrazol-1-yl)methyl)benzyl)-4,10,12,16,22,24-hexamethyl-1,7,13,19-tetraoxa-4,10,16,22-tetraazacyclotetracosan-2,5,8,11,14,17,20,23-octaone] | 0.01 to 0.1 | 1 to 10 |
| Cc1cnn(Cc2ccc(C[C@H]3OC(=O)[C@H](CC(C)C)N(C)C(=O)[C@@H](C)OC(=O)[C@H](CC(C)C)N(C)C(=O)[C@@H](Cc4ccc(Cn5cc(C)cn5)cc4)OC(=O)[C@H](CC(C)C)N(C)C(=O)[C@@H](C)OC(=O)[C@H](CC(C)C)N(C)C3=O)cc2)c1 [Example 1b-24, (3S,6R,9S,12R,15S,18R,21S,24R)-3,9,15,21-tetraisobutyl-4,6,10,16,18,22-hexamethyl-12,24-bis[[4-[(4-methylpyrazol-1-yl)methyl]phenyl]methyl]-1,7,13,19-tetraoxa-4,10,16,22-tetrazacyclotetracosane-2,5,8,11,14,17,20,23-octaone] | 0.001 to 0.01 | 1 to 10 |
| Cc1cc(C)n(Cc2ccc(C[C@H]3OC(=O)[C@H](CC(C)C)N(C)C(=O)[C@@H](C)OC(=O)[C@H](CC(C)C)N(C)C(=O)[C@@H](Cc4ccc(Cn5nc(C)cc5C)cc4)OC(=O)[C@H](CC(C)C)N(C)C(=O)[C@@H](C)OC(=O)[C@H](CC(C)C)N(C)C3=O)cc2)n1 [Example 1b-29, (3S,6R,9S,12R,15S,18R,21S,24R)-6,18-bis[[4-[(3,5-dimethylpyrazol-1-yl)methyl]phenyl]methyl]-3,9,15,21-tetraisobutyl-4,10,12,16,22,24-hexamethyl-1,7,13,19-tetraoxa-4,10,16,22-tetrazacyclotetracosane-2,5,8,11,14,17,20,23-octaone] | 0.001 to 0.01 | 1 to 10 |
| COc1cnn(Cc2ccc(C[C@H]3OC(=O)[C@H](CC(C)C)N(C)C(=O)[C@@H](C)OC(=O)[C@H](CC(C)C)N(C)C(=O)[C@@H](Cc4ccc(Cn5cc(OC)cn5)cc4)OC(=O)[C@H](CC(C)C)N(C)C(=O)[C@@H](C)OC(=O)[C@H](CC(C)C)N(C)C3=O)cc2)c1 [Example 1b-52, (3S,6R,9S,12R,15S,18R,21S,24R)-3,9,15,21-tetraisobutyl-6,18-bis(4-((4-methoxy-1H-pyrazol-1-yl)methyl)benzyl)-4,10,12,16,22,24-hexamethyl-1,7,13,19-tetraoxa-4,10,16,22-tetraazacyclotetracosan-2,5,8,11,14,17,20,23-octaone] | 0.001 to 0.01 | 1 to 10 |
| Cc1ccn(Cc2ccc(C[C@H]3OC(=O)[C@H](CC(C)C)N(C)C(=O)[C@@H](C)OC(=O)[C@H](CC(C)C)N(C)C(=O)[C@@H](Cc4ccc(Cn5ccc(C)n5)cc4)OC(=O)[C@H](CC(C)C)N(C)C(=O)[C@@H](C)OC(=O)[C@H](CC(C)C)N(C)C3=O)cc2)n1 [Example 1b-94, (3S,6R,9S,12R,15S,18R,21S,24R)-3,9,15,21-tetraisobutyl-4,6,10,16,18,22-hexamethyl-12,24-bis(4-((3-methyl-1H-pyrazol-1-yl)methyl)benzyl)-1,7,13,19-tetraoxa-4,10,16,22-tetraazacyclotetracosan-2,5,8,11,14,17,20,23-octaone] | 0.001 to 0.01 | ≤ 1 |
| CCc1ccn(Cc2ccc(C[C@H]3OC(=O)[C@H](CC(C)C)N(C)C(=O)[C@@H](C)OC(=O)[C@H](CC(C)C)N(C)C(=O)[C@@H](Cc4ccc(Cn5ccc(CC)n5)cc4)OC(=O)[C@H](CC(C)C)N(C)C(=O)[C@@H](C)OC(=O)[C@H](CC(C)C)N(C)C3=O)cc2)n1 [Example 1b-95, (3S,6R,9S,12R,15S,18R,21S,24R)-6,18-bis(4-((3-ethyl-1H-pyrazol-1-yl)methyl)benzyl)-3,9,15,21-tetraisobutyl-4,10,12,16,22,24-hexamethyl-1,7,13,19-tetraoxa-4,10,16,22-tetraazacyclotetracosan-2,5,8,11,14,17,20,23-octaone] | 0.001 to 0.01 | 1 to 10 |
| Cc1nn(Cc2ccc(C[C@H]3OC(=O)[C@H](CC(C)C)N(C)C(=O)[C@@H](C)OC(=O)[C@H](CC(C)C)N(C)C(=O)[C@@H](Cc4ccc(Cn5nc(C)c(F)c5C)cc4)OC(=O)[C@H](CC(C)C)N(C)C(=O)[C@@H](C)OC(=O)[C@H](CC(C)C)N(C)C3=O)cc2)c(C)c1F [Example 1b-110, (3S,6R,9S,12R,15S,18R,21S,24R)-6,18-bis(4-((4-fluoro-3,5-dimethyl-1H-pyrazol-1-yl)methyl)benzyl)-3,9,15,21-tetraisobutyl-4,10,12,16,22,24-hexamethyl-1,7,13,19-tetraoxa-4,10,16,22-tetraazacyclotetracosan-2,5,8,11,14,17,20,23-octaone] | 0.01 to 0.1 | 1 to 10 |
| CC(C)C[C@H]1C(=O)O[C@H](Cc2ccc(Cn3nc(C4CC4)c(N)c3C3CC3)cc2)C(=O)N(C)[C@@H](CC(C)C)C(=O)O[C@H](C)C(=O)N(C)[C@@H](CC(C)C)C(=O)O[C@H](Cc2ccc(Cn3nc(C4CC4)c(N)c3C3CC3)cc2)C(=O)N(C)[C@@H](CC(C)C)C(=O)O[C@H](C)C(=O)N1C [Example 1b-145, (3S,6R,9S,12R,15S,18R,21S,24R)-6,18-bis(4-((4-amino-3,5-dicyclopropyl-1H-pyrazol-1-yl)methyl)benzyl)-3,9,15,21-tetraisobutyl-4,10,12,16,22,24-hexamethyl-1,7,13,19-tetraoxa-4,10,16,22-tetraazacyclotetracosan-2,5,8,11,14,17,20,23-octaone] | 0.001 to 0.01 | 1 to 10 |
| CC(C)C[C@H]1C(=O)O[C@H](Cc2ccc(Cn3nccc3C3(C)CCOCC3)cc2)C(=O)N(C)[C@@H](CC(C)C)C(=O)O[C@H](C)C(=O)N(C)[C@@H](CC(C)C)C(=O)O[C@H](Cc2ccc(Cn3nccc3C3(C)CCOCC3)cc2)C(=O)N(C)[C@@H](CC(C)C)C(=O)O[C@H](C)C(=O)N1C [Example 1b-213, (3S,6R,9S,12R,15S,18R,21S,24R)-3,9,15,21-tetraisobutyl-4,6,10,16,18,22-hexamethyl-12,24-bis(4-((5-(4-methyltetrahydro-2H-pyran-4-yl)-1H-pyrazol-1-yl)methyl)benzyl)-1,7,13,19-tetraoxa-4,10,16,22-tetraazacyclotetracosan-2,5,8,11,14,17,20,23-octaone] | 0.001 to 0.01 | 1 to 10 |
| COC(C)(C)Cc1ccnn1Cc1ccc(C[C@H]2OC(=O)[C@H](CC(C)C)N(C)C(=O)[C@@H](C)OC(=O)[C@H](CC(C)C)N(C)C(=O)[C@@H](Cc3ccc(Cn4nccc4CC(C)(C)OC)cc3)OC(=O)[C@H](CC(C)C)N(C)C(=O)[C@@H](C)OC(=O)[C@H](CC(C)C)N(C)C2=O)cc1 [Example 1b-214, (3S,6R,9S,12R,15S,18R,21S,24R)-3,9,15,21-tetraisobutyl-6,18-bis(4-((5-(2-methoxy-2-methylpropyl)-1H-pyrazol-1-yl)methyl)benzyl)-4,10,12,16,22,24-hexamethyl-1,7,13,19-tetraoxa-4,10,16,22-tetraazacyclotetracosan-2,5,8,11,14,17,20,23-octaone] | 0.01 to 0.1 | 1 to 10 |
| Cc1cnn(Cc2ccc(C[C@H]3OC(=O)[C@H](CC(C)C)N(C)C(=O)[C@@H](C)OC(=O)[C@H](CC(C)C)N(C)C(=O)[C@@H](Cc4ccccc4)OC(=O)[C@H](CC(C)C)N(C)C(=O)[C@@H](C)OC(=O)[C@H](CC(C)C)N(C)C3=O)cc2)c1 [Example 2-2, (3S,6R,9S,12R,15S,18R,21S,24R)-6-benzyl-3,9,15,21-tetraisobutyl-4,10,12,16,22,24-hexamethyl-18-[[4-[(4-methylpyrazol-1-yl)methyl]phenyl]methyl]-1,7,13,19-tetraoxa-4,10,16,22-tetrazacyclotetracosane-2,5,8,11,14,17,20,23-octaone] | 0.001 to 0.01 | 1 to 10 |
